Several values for one entry are separate records, joined by “and”; a condition that tells them apart may be missing. Equal entries are not always repeated. Inconclusive results and toxic doses are left out. Cut-off read from the data, not from the text of the source: active = T/C of 150% or more; inactive = T/C below 125%.
Tested on: L1210 leukemia ip in BDF1 mice, survival T/C
Assay: NCI In Vivo Anticancer Drug Screen. Data for tumor model L1210 Leukemia (intraperitoneal) in B6D2F1 (BDF1) mice
Conditions: endpoint: mean survival time, higher = longer survival
Summary of the method: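 Survival endpoint. Drug-treated group vs vehicle group, expressed as T divided by C. Tumor passaged by transplantation.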

[1] = dose: 100.0 mg/kg/injection, schedule: Q01DX001 (ip), vehicle: carboxymethylcellulose (CMC)
[2] = dose: 100.0 mg/kg/injection, schedule: Q01DX009 (ip), vehicle: Klucel (hydroxypropylcellulose) (HPC)
[3] = dose: 100.0 mg/kg/injection, schedule: Q04DX003 (ip), vehicle: saline
[4] = dose: 200.0 mg/kg/injection, schedule: Q01DX001 (ip), vehicle: carboxymethylcellulose (CMC)
[5] = dose: 200.0 mg/kg/injection, schedule: Q01DX009 (ip), vehicle: Klucel (hydroxypropylcellulose) (HPC)
[6] = dose: 400.0 mg/kg/injection, schedule: Q01DX001 (ip), vehicle: carboxymethylcellulose (CMC)
[7] = dose: 100.0 mg/kg/injection, schedule: Q01DX009 (ip), vehicle: saline with Tween-80
[8] = dose: 200.0 mg/kg/injection, schedule: Q01DX009 (ip), vehicle: saline with Tween-80
[9] = dose: 400.0 mg/kg/injection, schedule: Q01DX009 (ip), vehicle: saline with Tween-80
[10] = dose: 100.0 mg/kg/injection, schedule: Q04DX003 (ip), vehicle: saline with Tween-80
[11] = dose: 25.0 mg/kg/injection, schedule: Q01DX009 (ip), vehicle: Klucel (hydroxypropylcellulose) (HPC)
[12] = dose: 100.0 mg/kg/injection, schedule: Q04DX003 (ip), vehicle: Klucel (hydroxypropylcellulose) (HPC)
[13] = dose: 200.0 mg/kg/injection, schedule: Q04DX003 (ip), vehicle: Klucel (hydroxypropylcellulose) (HPC)
[14] = dose: 400.0 mg/kg/injection, schedule: Q01DX009 (ip), vehicle: Klucel (hydroxypropylcellulose) (HPC)
[15] = dose: 400.0 mg/kg/injection, schedule: Q04DX003 (ip), vehicle: Klucel (hydroxypropylcellulose) (HPC)
[16] = dose: 50.0 mg/kg/injection, schedule: Q01DX009 (ip), vehicle: saline
[17] = dose: 100.0 mg/kg/injection, schedule: Q01DX009 (ip), vehicle: saline

Measured: T/C

Cc1cccnc1NC(=O)NCCCl
inactive: [1] 101 % of control | [2] 92 % of control | [3] 98 % of control | [4] 103 % of control | [5] 93 % of control | dose: 200.0 mg/kg/injection, schedule: Q04DX003 (ip), vehicle: saline 97 % of control | [6] 103 % of control | dose: 400.0 mg/kg/injection, schedule: Q04DX003 (ip), vehicle: saline 89 % of control

N#CCCc1c(O)ccc2ccccc12
inactive: [7] 105 % of control | [8] 102 % of control | [9] 105 % of control

NC(N)=NCCCOc1ccc([N+](=O)[O-])cc1
inactive: dose: 25.0 mg/kg/injection, schedule: Q04DX003 (ip), vehicle: saline 96 % of control | dose: 50.0 mg/kg/injection, schedule: Q04DX003 (ip), vehicle: saline 100 % of control | [10] 101 % of control | [3] 94 % of control

N#CC1(C#N)OC1c1ccccc1Cl (stereo not given)
inactive: dose: 10.0 mg/kg/injection, schedule: Q04DX002 (ip), vehicle: Klucel (hydroxypropylcellulose) (HPC) 100 % of control | dose: 20.0 mg/kg/injection, schedule: Q04DX002 (ip), vehicle: Klucel (hydroxypropylcellulose) (HPC) 100 % of control

C[CH2][Ge]1([CH2]C)[CH2]CC2(C[CH2]1)NC(=O)N(CCCN(C)C)C2O (stereo not given)
inactive: dose: 100.0 mg/kg/injection, schedule: Q04DX002 (ip), vehicle: saline 96 % of control | dose: 200.0 mg/kg/injection, schedule: Q04DX002 (ip), vehicle: saline 100 % of control | dose: 400.0 mg/kg/injection, schedule: Q04DX002 (ip), vehicle: saline 88 % of control

C/C(Cc1cc(C)nc(N)n1)=N\Nc1ccccc1
inactive: dose: 6.25 mg/kg/injection, schedule: Q01DX009 (ip), vehicle: Klucel (hydroxypropylcellulose) (HPC) 93 % of control | dose: 12.5 mg/kg/injection, schedule: Q01DX009 (ip), vehicle: Klucel (hydroxypropylcellulose) (HPC) 115 % of control | [11] 91 % of control

CN(C)c1ccc(C=O)c(Br)c1
inactive: [2] 96 % of control | [12] 96 % of control | [5] 91 % of control | [13] 111 % of control | [14] 103 % of control | [15] 100 % of control

NNc1cc(=O)n2ccccc2n1
inactive: [1] 98 % of control | [4] 98 % of control | [6] 101 % of control

CN(C)C=Nc1ncnc2nc[nH]c12
inactive: dose: 100.0 mg/kg/injection, schedule: Q04DX002 (ip), vehicle: saline with Tween-80 102 % of control | dose: 200.0 mg/kg/injection, schedule: Q04DX002 (ip), vehicle: saline with Tween-80 102 % of control | dose: 400.0 mg/kg/injection, schedule: Q04DX002 (ip), vehicle: saline with Tween-80 109 % of control

CN(C1=CC(=O)C(N(C)C2CCCCC2)=CC1=O)C1CCCCC1
inactive: dose: 7.5 mg/kg/injection, schedule: Q01DX009 (ip), vehicle: saline 90 % of control | dose: 15.0 mg/kg/injection, schedule: Q01DX009 (ip), vehicle: saline 93 % of control

CC(=O)N(CC(=O)O)Cc1ccccc1
inactive: dose: 100.0 mg/kg/injection, schedule: Q01DX009 (ip), vehicle: other 100 % of control | dose: 100.0 mg/kg/injection, schedule: Q04DX003 (ip), vehicle: other 95 % of control | dose: 200.0 mg/kg/injection, schedule: Q01DX009 (ip), vehicle: other 105 % of control | dose: 200.0 mg/kg/injection, schedule: Q04DX003 (ip), vehicle: other 101 % of control | dose: 400.0 mg/kg/injection, schedule: Q01DX009 (ip), vehicle: other 105 % of control | dose: 400.0 mg/kg/injection, schedule: Q04DX003 (ip), vehicle: other 106 % of control

CC(=O)Oc1cc(OC(C)=O)c2c(OC(C)=O)c3c(OC(C)=O)cc(C)cc3cc2c1
inactive: dose: 5.0 mg/kg/injection, schedule: Q01DX001 (ip), vehicle: saline 112 % of control | dose: 10.0 mg/kg/injection, schedule: Q01DX001 (ip), vehicle: saline 113 % of control

CC(C)C(CN)(CCCCN1CCCCC1)c1cccc2ccccc12 (stereo not given)
inactive: [10] 95 % of control

O=C1CCCC2C1C1(O)CCC2(O)c2cccc(O)c21 (stereo not given)
inactive: dose: 6.25 mg/kg/injection, schedule: Q01DX009 (ip), vehicle: saline 109 % of control | dose: 12.5 mg/kg/injection, schedule: Q01DX009 (ip), vehicle: saline 102 % of control | dose: 25.0 mg/kg/injection, schedule: Q01DX009 (ip), vehicle: saline 101 % of control | [16] 98 % of control | dose: 100.0 mg/kg/injection, schedule: Q01DX001 (ip), vehicle: saline 96 % of control | [17] 91 % of control | dose: 200.0 mg/kg/injection, schedule: Q01DX001 (ip), vehicle: saline 103 % of control

CCCCCCCCCC1(C)OCC(COC(N)=O)O1 (stereo not given)
inactive: [11] 104 % of control | dose: 25.0 mg/kg/injection, schedule: Q04DX003 (ip), vehicle: Klucel (hydroxypropylcellulose) (HPC) 98 % of control | dose: 50.0 mg/kg/injection, schedule: Q01DX009 (ip), vehicle: Klucel (hydroxypropylcellulose) (HPC) 93 % of control | dose: 50.0 mg/kg/injection, schedule: Q04DX003 (ip), vehicle: Klucel (hydroxypropylcellulose) (HPC) 96 % of control | [2] 93 % of control | [12] 96 % of control | [5] 98 % of control | [13] 98 % of control | [14] 102 % of control | [15] 98 % of control

CN1CCN(c2nc3ccccc3n3nnnc23)CC1
inactive: dose: 37.5 mg/kg/injection, schedule: Q04DX003 (ip), vehicle: saline 104 % of control | dose: 75.0 mg/kg/injection, schedule: Q04DX003 (ip), vehicle: saline 107 % of control

OC(C(c1ccccc1)c1ccccn1)(C(F)(F)F)C(F)(F)F (stereo not given)
inactive: [7] 106 % of control | [10] 94 % of control | [8] 104 % of control | dose: 200.0 mg/kg/injection, schedule: Q04DX003 (ip), vehicle: saline with Tween-80 100 % of control | [9] 97 % of control | dose: 400.0 mg/kg/injection, schedule: Q04DX003 (ip), vehicle: saline with Tween-80 97 % of control

CC[CH2][Sn]([CH2]CC)([CH2]CC)[O]C(=O)C(Cl)(Cl)Cl
inactive: dose: 0.39 mg/kg/injection, schedule: Q01DX009 (ip), vehicle: saline with Tween-80 87 % of control | dose: 0.78 mg/kg/injection, schedule: Q01DX009 (ip), vehicle: saline with Tween-80 98 % of control | dose: 1.56 mg/kg/injection, schedule: Q01DX009 (ip), vehicle: saline with Tween-80 91 % of control

ClCC[N+]12CC[N+](CCCl)(CC1)C2
inactive: dose: 75.0 mg/kg/injection, schedule: Q01DX001 (ip), vehicle: saline 105 % of control | dose: 150.0 mg/kg/injection, schedule: Q01DX001 (ip), vehicle: saline 120 % of control

Cc1cccc(N=Cc2ccc3c(c2)OCO3)c1
inactive: [16] 94 % of control | [17] 94 % of control | dose: 200.0 mg/kg/injection, schedule: Q01DX009 (ip), vehicle: saline 94 % of control

FC(F)(F)c1nc2nc(Cl)c(Cl)nc2s1
inactive: dose: 0.5 mg/kg/injection, schedule: Q01DX009 (ip), vehicle: other 116 % of control | dose: 1.0 mg/kg/injection, schedule: Q01DX009 (ip), vehicle: other 106 % of control | dose: 2.0 mg/kg/injection, schedule: Q01DX009 (ip), vehicle: other 101 % of control | dose: 3.12 mg/kg/injection, schedule: Q01DX009 (ip), vehicle: other 114 % of control | dose: 4.0 mg/kg/injection, schedule: Q01DX009 (ip), vehicle: other 107 % of control | dose: 6.25 mg/kg/injection, schedule: Q01DX009 (ip), vehicle: other 103 % of control | dose: 12.5 mg/kg/injection, schedule: Q01DX009 (ip), vehicle: other 103 % of control | dose: 25.0 mg/kg/injection, schedule: Q01DX009 (ip), vehicle: other 101 % of control and 103 % of control

CNC(=S)N(N)c1ccccc1
inactive: [2] 104 % of control | [12] 93 % of control | [5] 101 % of control | [13] 103 % of control | [15] 101 % of control

CS(=O)(=O)OCC1CCC(COS(C)(=O)=O)CC1 (stereo not given)
inactive: [12] 103 % of control | [13] 100 % of control | [15] 102 % of control

Source: PubChem BioAssay AID248 (DTP/NCI, 2004)
